Results as given in ChEMBL document CHEMBL3046568, “Synthesis, antimicrobial and DNA cleavage studies of some 4-aryloxymethylcoumarins obtained by reaction of 4-bromomethylcoumarins with bidentate nucleophiles” (2012).
Converted amounts (≈) assume the structure as drawn. The source made the active and inactive calls. The calls are words filed in the database; no cut-off is given here.

Legend:
[1] = test system: Aspergillus niger; assay: Induction of Aspergillus niger DNA cleavage at 25 ug after 2 hr by agarose gel electrophoresis
[2] = test system: Klebsiella pneumoniae; assay: Antibacterial activity against Klebsiella pneumoniae MTCC 3384 after 24 hr by disk diffusion method; format: functional; conditions: for MIC: Klebsiella pneumoniae, MTCC 3384, 24 h
[3] = test system: Staphylococcus aureus; assay: Antibacterial activity against Staphylococcus aureus MTCC 3160 after 24 hr by disk diffusion method; format: functional; conditions: for MIC: Staphylococcus aureus, MTCC 3160, 24 h
[4] = test system: Penicillium chrysogenum; assay: Antifungal activity against Penicillium chrysogenum after 3 to 4 days by serial dilution method; format: functional; conditions: for MIC: Penicillium chrysogenum
[5] = test system: Escherichia coli; assay: Antibacterial activity against Escherichia coli MTCC 1089 after 24 hr by disk diffusion method; format: functional; conditions: for MIC: Escherichia coli, MTCC 1089, 24 h
[6] = test system: Aspergillus niger; assay: Induction of Aspergillus niger DNA cleavage at 50 ug after 2 hr by agarose gel electrophoresis
[7] = test system: Aspergillus fumigatus; assay: Antifungal activity against Aspergillus fumigatus after 3 to 4 days by serial dilution method; format: functional; conditions: for MIC: Aspergillus fumigatus
[8] = test system: Bacillus subtilis; assay: Antibacterial activity against Bacillus subtilis MTCC 297 after 24 hr by disk diffusion method; format: functional; conditions: for MIC: Bacillus subtilis, MTCC 297, 24 h
[9] = test system: Enterococcus faecalis; assay: Antibacterial activity against Enterococcus faecalis MTCC 3382 after 24 hr by disk diffusion method; format: functional; conditions: for MIC: Enterococcus faecalis, MTCC 3382, 24 h
[10] = test system: Candida albicans; assay: Antifungal activity against Candida albicans after 3 to 4 days by serial dilution method; format: functional; conditions: for MIC: Candida albicans
[11] = test system: Fusarium oxysporum; assay: Antifungal activity against Fusarium oxysporum after 3 to 4 days by serial dilution method; format: functional; conditions: for MIC: Fusarium oxysporum
[12] = test system: Aspergillus niger; assay: Antifungal activity against Aspergillus niger after 3 to 4 days by serial dilution method; format: functional; conditions: for MIC: Aspergillus niger
[13] = test system: Staphylococcus aureus; assay: Induction of Staphylococcus aureus MTCC 3160 DNA cleavage at 50 ug after 2 hr by agarose gel electrophoresis
[14] = test system: Escherichia coli; assay: Induction of Escherichia coli MTCC 1089 DNA cleavage at 50 ug after 2 hr by agarose gel electrophoresis
[15] = test system: Staphylococcus aureus; assay: Induction of Staphylococcus aureus MTCC 3160 DNA cleavage at 25 ug after 2 hr by agarose gel electrophoresis
[16] = test system: Pseudomonas aeruginosa; assay: Antibacterial activity against Pseudomonas aeruginosa MTCC 1034 after 24 hr by disk diffusion method; format: functional; conditions: for MIC: Pseudomonas aeruginosa, MTCC 1034, 24 h
[17] = test system: Mucor fuscus; assay: Antifungal activity against Mucor fuscus after 3 to 4 days by serial dilution method; format: functional; conditions: for MIC: Mucor fuscus
[18] = test system: Escherichia coli; assay: Induction of Escherichia coli MTCC 1089 DNA cleavage at 25 ug after 2 hr by agarose gel electrophoresis

Row | MIC [2] [µg/mL] | MIC [3] [µg/mL] | MIC [4] [µg/mL] | MIC [5] [µg/mL] | Activity [6] | MIC [7] [µg/mL] | MIC [8] [µg/mL] | MIC [9] [µg/mL] | MIC [10] [µg/mL] | MIC [11] [µg/mL] | SMILES | inhibition zone (IZ) [2] [mm] | inhibition zone (IZ) [3] [mm] | inhibition zone (IZ) [4] [mm] | inhibition zone (IZ) [5] [mm] | inhibition zone (IZ) [7] [mm] | inhibition zone (IZ) [8] [mm] | inhibition zone (IZ) [9] [mm] | inhibition zone (IZ) [10] [mm] | inhibition zone (IZ) [11] [mm] | inhibition zone (IZ) [12] [mm] | also measured
1 | 6.25 (≈ 20.6 µM) | 6.25 (≈ 20.6 µM) | 6.25 (≈ 20.6 µM) | 12.5 (≈ 41.3 µM) | Active | 6.25 (≈ 20.6 µM) | 6.25 (≈ 20.6 µM) | 6.25 (≈ 20.6 µM) | 6.25 (≈ 20.6 µM) | 12.5 (≈ 41.3 µM) | O=c1cc(COc2cccc(O)c2)c2cc(Cl)ccc2o1 | 19 | 21 | 22 | 17 | 21 | 20 | 22 | 20 | 17 | 24 | Activity [1]: Active; MIC [12]: 6.25 µg/mL (≈ 20.6 µM); Activity [13]: Active; Activity [14]: Active; Activity [15]: Active; inhibition zone (IZ) [16]: 24 mm; MIC [16]: 6.25 µg/mL (≈ 20.6 µM); inhibition zone (IZ) [17]: 21 mm; MIC [17]: 6.25 µg/mL (≈ 20.6 µM)
2 | 6.25 (≈ 21 µM) | 6.25 (≈ 21 µM) | 6.25 (≈ 21 µM) | 12.5 (≈ 41.9 µM) | Active | 12.5 (≈ 41.9 µM) | 6.25 (≈ 21 µM) | 6.25 (≈ 21 µM) | 6.25 (≈ 21 µM) | 12.5 (≈ 41.9 µM) | COc1ccc2oc(=O)cc(COc3cccc(O)c3)c2c1 | 21 | 20 | 20 | 18 | 17 | 18 | 21 | 19 | 16 | 20 | Activity [18]: Active; MIC [12]: 6.25 µg/mL (≈ 21 µM); Activity [13]: Active; Activity [14]: Active; inhibition zone (IZ) [16]: 25 mm; MIC [16]: 6.25 µg/mL (≈ 21 µM); inhibition zone (IZ) [17]: 19 mm; MIC [17]: 6.25 µg/mL (≈ 21 µM)
3 | 6.25 (≈ 12.8 µM) | 6.25 (≈ 12.8 µM) | 12.5 (≈ 25.7 µM) | 12.5 (≈ 25.7 µM) | Active | 12.5 (≈ 25.7 µM) | 6.25 (≈ 12.8 µM) | 6.25 (≈ 12.8 µM) | 6.25 (≈ 12.8 µM) | 12.5 (≈ 25.7 µM) | COc1ccc2oc(=O)cc(COc3cccc(OCc4cc(=O)oc5ccc(OC)cc45)c3)c2c1 | 20 | 19 | 17 | 17 | 18 | 18 | 21 | 17 | 15 | 18 | Activity [18]: Active; MIC [12]: 12.5 µg/mL (≈ 25.7 µM); Activity [13]: Active; Activity [14]: Active; inhibition zone (IZ) [16]: 24 mm; MIC [16]: 6.25 µg/mL (≈ 12.8 µM); inhibition zone (IZ) [17]: 20 mm; MIC [17]: 6.25 µg/mL (≈ 12.8 µM)
